# Measured values published in the NIST ThermoML archive (doi:10.1021/je060429r).
# Several values for one entry are separate records, joined by “and”; a condition that tells them apart may be missing. Identical values can stand only once. ± gives the expanded uncertainty stated by the source.
# Conditions: Transpiration method
smiles,measurement,setting,value
"Oc1cccc(Cl)c1Cl [2,3-dichlorophenol]",vapor or sublimation pressure,"294.3 K, Crystal",0.0078 ± 0.0004 kPa
same,vapor or sublimation pressure,"297.3 K, Crystal",0.0107 ± 0.0006 kPa
same,vapor or sublimation pressure,"300.2 K, Crystal",0.0149 ± 0.0008 kPa
same,vapor or sublimation pressure,"303.2 K, Crystal",0.0192 ± 0.001 kPa
same,vapor or sublimation pressure,"306.2 K, Crystal",0.0267 ± 0.0013 kPa
same,vapor or sublimation pressure,"309.2 K, Crystal",0.0351 ± 0.0018 kPa
same,vapor or sublimation pressure,"312.2 K, Crystal",0.0482 ± 0.0024 kPa
same,vapor or sublimation pressure,"315.2 K, Crystal",0.0633 ± 0.0031 kPa
same,vapor or sublimation pressure,"318.1 K, Crystal",0.0798 ± 0.004 kPa
same,vapor or sublimation pressure,"321.2 K, Crystal",0.1081 ± 0.0054 kPa
same,vapor or sublimation pressure,"324.3 K, Crystal",0.1429 ± 0.0071 kPa
same,vapor or sublimation pressure,"327.3 K, Crystal",0.1835 ± 0.0089 kPa
same,vapor or sublimation pressure,"331.2 K, Liquid",0.2449 ± 0.012 kPa
same,vapor or sublimation pressure,"334.3 K, Liquid",0.2946 ± 0.014 kPa
same,vapor or sublimation pressure,"337.2 K, Liquid",0.3508 ± 0.017 kPa
same,vapor or sublimation pressure,"340.3 K, Liquid",0.4132 ± 0.02 kPa
same,vapor or sublimation pressure,"343.2 K, Liquid",0.4874 ± 0.023 kPa
same,vapor or sublimation pressure,"346.2 K, Liquid",0.5745 ± 0.027 kPa
same,vapor or sublimation pressure,"349.2 K, Liquid",0.6662 ± 0.032 kPa
same,vapor or sublimation pressure,"352.1 K, Liquid",0.7881 ± 0.037 kPa
same,vapor or sublimation pressure,"355.2 K, Liquid",0.9247 ± 0.044 kPa
same,vapor or sublimation pressure,"358.2 K, Liquid",1.078 ± 0.051 kPa
"Oc1c(Cl)cc(Cl)cc1Cl [2,4,6-trichlorophenol]",vapor or sublimation pressure,"299.4 K, Crystal",0.00177 ± 9e-05 kPa
same,vapor or sublimation pressure,"302.3 K, Crystal",0.00245 ± 0.00012 kPa
same,vapor or sublimation pressure,"305.2 K, Crystal",0.00319 ± 0.00016 kPa
same,vapor or sublimation pressure,"308.3 K, Crystal",0.0044 ± 0.00022 kPa
same,vapor or sublimation pressure,"311.3 K, Crystal",0.00593 ± 0.0003 kPa
same,vapor or sublimation pressure,"314.3 K, Crystal",0.00805 ± 0.00041 kPa
same,vapor or sublimation pressure,"316.8 K, Crystal",0.01044 ± 0.00058 kPa and 0.01061 ± 0.00055 kPa
same,vapor or sublimation pressure,"317.3 K, Crystal",0.01125 ± 0.00061 kPa
same,vapor or sublimation pressure,"320.3 K, Crystal",0.015 ± 0.00076 kPa
same,vapor or sublimation pressure,"323.3 K, Crystal",0.02013 ± 0.001 kPa
same,vapor or sublimation pressure,"326.3 K, Crystal",0.02645 ± 0.0013 kPa
same,vapor or sublimation pressure,"329.4 K, Crystal",0.03488 ± 0.0017 kPa
same,vapor or sublimation pressure,"332.5 K, Crystal",0.04531 ± 0.0022 kPa
same,vapor or sublimation pressure,"335.5 K, Crystal",0.05882 ± 0.0029 kPa
same,vapor or sublimation pressure,"338.2 K, Crystal",0.07513 ± 0.0037 kPa
same,vapor or sublimation pressure,"340.3 K, Crystal",0.08978 ± 0.0044 kPa
same,vapor or sublimation pressure,"342.8 K, Liquid",0.1027 ± 0.0048 kPa
same,vapor or sublimation pressure,"343.2 K, Liquid",0.1041 ± 0.005 kPa
same,vapor or sublimation pressure,"343.8 K, Liquid",0.1081 ± 0.0052 kPa
same,vapor or sublimation pressure,"345.2 K, Liquid",0.1191 ± 0.0057 kPa
same,vapor or sublimation pressure,"346.3 K, Liquid",0.1271 ± 0.006 kPa
same,vapor or sublimation pressure,"347.3 K, Liquid",0.1317 ± 0.0063 kPa
same,vapor or sublimation pressure,"348.3 K, Liquid",0.1419 ± 0.0069 kPa
same,vapor or sublimation pressure,"348.9 K, Liquid",0.1495 ± 0.0072 kPa
same,vapor or sublimation pressure,"350.4 K, Liquid",0.1613 ± 0.0077 kPa
same,vapor or sublimation pressure,"351.4 K, Liquid",0.1716 ± 0.0082 kPa
same,vapor or sublimation pressure,"353.3 K, Liquid",0.1898 ± 0.009 kPa
same,vapor or sublimation pressure,"353.9 K, Liquid",0.1975 ± 0.0099 kPa
same,vapor or sublimation pressure,"354.4 K, Liquid",0.2102 ± 0.01 kPa
same,vapor or sublimation pressure,"356.4 K, Liquid",0.2268 ± 0.011 kPa
same,vapor or sublimation pressure,"357.5 K, Liquid",0.2519 ± 0.012 kPa
same,vapor or sublimation pressure,"359 K, Liquid",0.2809 ± 0.013 kPa
same,vapor or sublimation pressure,"359.4 K, Liquid",0.2784 ± 0.013 kPa
same,vapor or sublimation pressure,"360.5 K, Liquid",0.2994 ± 0.014 kPa
same,vapor or sublimation pressure,"362.5 K, Liquid",0.3322 ± 0.016 kPa
same,vapor or sublimation pressure,"363.2 K, Liquid",0.3412 ± 0.016 kPa
same,vapor or sublimation pressure,"364.1 K, Liquid",0.3663 ± 0.017 kPa
same,vapor or sublimation pressure,"365.5 K, Liquid",0.3878 ± 0.018 kPa
same,vapor or sublimation pressure,"366.3 K, Liquid",0.4095 ± 0.02 kPa
same,vapor or sublimation pressure,"368.1 K, Liquid",0.4623 ± 0.022 kPa
same,vapor or sublimation pressure,"368.6 K, Liquid",0.463 ± 0.022 kPa
same,vapor or sublimation pressure,"369.4 K, Liquid",0.4939 ± 0.024 kPa
same,vapor or sublimation pressure,"372.4 K, Liquid",0.5714 ± 0.027 kPa
same,vapor or sublimation pressure,"373.2 K, Liquid",0.6103 ± 0.029 kPa and 0.6087 ± 0.029 kPa
same,vapor or sublimation pressure,"375.4 K, Liquid",0.6794 ± 0.032 kPa
"Oc1ccc(Cl)cc1Cl [2,4-dichlorophenol]",vapor or sublimation pressure,"278.2 K, Crystal",0.00175 ± 0.0001 kPa
same,vapor or sublimation pressure,"283.3 K, Crystal",0.00312 ± 0.00017 kPa
same,vapor or sublimation pressure,"289.3 K, Crystal",0.00626 ± 0.00032 kPa
same,vapor or sublimation pressure,"294.4 K, Crystal",0.01082 ± 0.00054 kPa
same,vapor or sublimation pressure,"297.3 K, Crystal",0.01464 ± 0.00075 kPa
same,vapor or sublimation pressure,"300.4 K, Crystal",0.02025 ± 0.001 kPa
same,vapor or sublimation pressure,"303.3 K, Crystal",0.02801 ± 0.0014 kPa
same,vapor or sublimation pressure,"306.3 K, Crystal",0.03848 ± 0.0019 kPa
same,vapor or sublimation pressure,"309.4 K, Crystal",0.05208 ± 0.0026 kPa
same,vapor or sublimation pressure,"312.4 K, Crystal",0.06848 ± 0.0034 kPa
same,vapor or sublimation pressure,"315.2 K, Crystal",0.09034 ± 0.0045 kPa
same,vapor or sublimation pressure,"317.2 K, Liquid",0.1061 ± 0.0052 kPa
same,vapor or sublimation pressure,"320.3 K, Liquid",0.1326 ± 0.0064 kPa
same,vapor or sublimation pressure,"323.2 K, Liquid",0.1612 ± 0.0078 kPa
same,vapor or sublimation pressure,"326.1 K, Liquid",0.1933 ± 0.0094 kPa
same,vapor or sublimation pressure,"329.2 K, Liquid",0.2419 ± 0.012 kPa
same,vapor or sublimation pressure,"332.2 K, Liquid",0.2831 ± 0.013 kPa
same,vapor or sublimation pressure,"335.2 K, Liquid",0.3393 ± 0.016 kPa
same,vapor or sublimation pressure,"338.2 K, Liquid",0.4027 ± 0.019 kPa
same,vapor or sublimation pressure,"341.2 K, Liquid",0.4846 ± 0.023 kPa
same,vapor or sublimation pressure,"344.2 K, Liquid",0.5835 ± 0.028 kPa
"Oc1cc(Cl)ccc1Cl [2,5-dichlorophenol]",vapor or sublimation pressure,"294.3 K, Crystal",0.0089 ± 0.0005 kPa
same,vapor or sublimation pressure,"297.3 K, Crystal",0.0122 ± 0.0006 kPa
same,vapor or sublimation pressure,"300.4 K, Crystal",0.0168 ± 0.0009 kPa
same,vapor or sublimation pressure,"303.3 K, Crystal",0.0223 ± 0.0011 kPa
same,vapor or sublimation pressure,"306.3 K, Crystal",0.0302 ± 0.0015 kPa
same,vapor or sublimation pressure,"309.2 K, Crystal",0.0399 ± 0.002 kPa
same,vapor or sublimation pressure,"312.2 K, Crystal",0.0532 ± 0.0027 kPa
same,vapor or sublimation pressure,"315.2 K, Crystal",0.0708 ± 0.0036 kPa
same,vapor or sublimation pressure,"318.3 K, Crystal",0.0944 ± 0.0047 kPa
same,vapor or sublimation pressure,"321.3 K, Crystal",0.1257 ± 0.0063 kPa
same,vapor or sublimation pressure,"324.4 K, Crystal",0.1636 ± 0.0081 kPa
same,vapor or sublimation pressure,"327.4 K, Crystal",0.2133 ± 0.01 kPa
same,vapor or sublimation pressure,"333.3 K, Liquid",0.3198 ± 0.015 kPa
same,vapor or sublimation pressure,"337.2 K, Liquid",0.3996 ± 0.019 kPa
same,vapor or sublimation pressure,"340.2 K, Liquid",0.4726 ± 0.022 kPa
same,vapor or sublimation pressure,"343.2 K, Liquid",0.5513 ± 0.026 kPa
same,vapor or sublimation pressure,"346.2 K, Liquid",0.6514 ± 0.031 kPa
same,vapor or sublimation pressure,"349.2 K, Liquid",0.7643 ± 0.036 kPa
same,vapor or sublimation pressure,"352.2 K, Liquid",0.894 ± 0.043 kPa
same,vapor or sublimation pressure,"355.2 K, Liquid",1.048 ± 0.05 kPa
same,vapor or sublimation pressure,"358.1 K, Liquid",1.204 ± 0.057 kPa
same,vapor or sublimation pressure,"361.2 K, Liquid",1.403 ± 0.066 kPa
